Where two headings read alike, the source gives them in different places.
Tests used:
[1] = Test about suppression of lipid peroxide generation in linoleic acid
Method: Using the compound of the formula (11) as obtained in Example 1 and the compound of the formula (12) as obtained in Example 2, a test about the suppression of lipid peroxide generation in linoleic acid was done. Along with the compounds, dl-α-tocopherol (manufactured by Tokyo Kasei Kogyo Co., Ltd.) was tested similarly, to obtain control data.
The test procedures are as follows. As a test result, the ratio of residual linoleic acid by the following procedure (3) is described in Table 1.
(1) After ethanol (2.0 g ) was added to linoleic acid (0.2 g; manufactured by Tokyo Kasei Kogyo Co., Ltd.), a test compound (0.01 g) and a surface active agent Nissan OT-221 (0.4 g; manufactured by NOF Corporation) placed in a 50-ml screw vial, for dissolution, distilled water (17.39 g) was added to the resulting solution for agitation, and was then sealed and left to stand alone in a thermostat at 40° C. Such sample was prepared in a duplex manner.
A blank test with no test compound added was similarly done.
(2) The amount of remaining linoleic acid one week, 2 weeks, 3 weeks and 4 weeks after the start of the test was assayed by HPLC.
The HPLC analytical conditions were as follows. Wavelength for detection: 210 nm. Mobile phase: a mixture solution of a disodium hydrogen phosphate-phosphate buffer adjusted to pH 2.5 and methanol (10:90). Flow: 1 ml/min. Column: ODS-8OTs (4.6 Φmm×150 mm). Column temperature at 40° C.
(3) Each sample was assayed by HPLC two times. The ratio of remaining linoleic acid was calculated on the basis of the mean of four assay values.

[2] = Test about scavenging DPPH radical; settings: final concentration 10 μg/mL; for Ratio of scavenging DPPH radical: 20 minutes, darkness, ambient temperature, absorbance at 517 nm
Method: Concerning radical-scavenging activity, a stable radical DPPH (1,1-diphenyl-2-picrylhydrazyl) was used for assaying the radical-scavenging activities of test compounds [the compound of the formula (11) and the compound of the formula (12) and a control sample dl-α-tocopherol (manufactured by Tokyo Kasei Kogyo Co., Ltd.)]. The assay method is as follows. Tris below is an acronym of tris(hydroxymethyl)aminomethane and M represents the concentration unit Mol/L.
1 ml of 200 μM DPPH solution in ethanol was added to 800 μl of 100 mM Tris-HCl buffer, pH 7.4 and 200 μl of a test compound solution in ethanol (to a final concentration of 10 μg/mL), for sufficient agitation. After the resulting mixture was left to stand alone in darkness at ambient temperature for 20 minutes, the absorbance at 517 nm was measured (absorbance of the test solutions).
Meanwhile, 800 μl of 100 mM Tris-HCl buffer, pH 7.4, 200 μl of ethanol and 1 ml of 200 μM DPPH solution in ethanol were used for the same procedures as described above to measure the absorbance to obtain the absorbance of the blank.
The individual test compounds and the blank were repeatedly treated by the same procedures three times, and the mean of the resulting absorbance values was inserted in the following formula, to calculate the ratio of scavenging DPPH radical. Ratio of scavenging DPPH radical (%)={1-(absorbance of sample solution/absorbance of blank solution)}×100

mushroom tyrosinase = test: Test about the inhibition of tyrosinase activity using L-dopa as substrate; format: biochemical; settings: 0.27 or 0.54 μmol in 3 ml enzyme reaction solution, 25° C.
Method: Using the compound of the formula (11) obtained in Example 1, a test about the inhibition of tyrosinase activity using L-dopa as substrate was done. The same test was done about arbutin (manufactured by Tokyo Kasei Kogyo Co., Ltd.), to get control data. The test procedures are as follows. […]
(2) 0.10 ml of an enzyme solution prepared by dissolving 3.0 mg (2400 units; manufactured by Sigma Corporation) of mushroom tyrosinase in 7.0 ml of distilled water was added to the solution prepared in (1), for agitation for 15 seconds. The resulting solution was retained at 25° C., to measure the absorbance at 475 nm one minute-45 seconds later and 2 minute- 45 seconds later.
(3) The test procedures above in (1) and (2) were conducted three times for the individual test compounds and blank test (only dimethylsulfoxide), and the resulting mean was inserted in the following calculation formula to determine the ratio (%) of the inhibition of tyrosinase activity. Ratio of inhibition of tyrosinase activity (%)=[(T^1-T^2)/T^1]×100 T^1=difference in absorbance of blank solution between 2 minute-45 seconds later and one minute-45 seconds later T^2=difference in absorbance of solution with addition of test compound between 2 minute-45 seconds later and one minute-45 seconds later

ratio of remaining linoleic acid [1]	inhibition of tyrosinase activity compared with arbutin (FIG. 1) (mushroom tyrosinase)	ratio of remaining linoleic acid ([1]; 2 weeks later, 40° C., 0.01 g test compound, 0.2 g linoleic acid, HPLC)	ratio of remaining linoleic acid ([1]; 3 weeks later, 40° C., 0.01 g test compound, 0.2 g linoleic acid, HPLC)	ratio of remaining linoleic acid ([1]; 4 weeks later, 40° C., 0.01 g test compound, 0.2 g linoleic acid, HPLC)	ratio of remaining linoleic acid ([1]; one week later, 40° C., 0.01 g test compound, 0.2 g linoleic acid, HPLC)	Structure (SMILES)	ability of scavenging radical compared with dl-α-tocopherol [2]	Ratio of scavenging DPPH radical [2]
90.5%	superior to that of arbutin					CCCCCC(CC(=O)CCc1ccc(O)c(OC)c1)OC (stereo not drawn) [Compound of formula (11)]	higher levels than that of dl-α-tocopherol	35.1%
		73.2%	62.6%	57.3%	83.6%	Cc1c(C)c2c(c(C)c1O)CCC(C)(CCCC(C)CCCC(C)CCCC(C)C)O2 (racemic) [Tocopherol, dl-α-tocopherol]		26.7%
89.2%						CCCCCC(CC(O)CCc1ccc(O)c(OC)c1)OC (stereo not drawn) [Compound of formula (12)]	higher levels than that of dl-α-tocopherol	40.0%
